Results from patent US10294244B2, “2,3-dihydro-thiazolo[3,2-A]pyridin-5-one derivatives, intermediates thereof, and their use as antibacterial agents” (Quretech Bio AB, priority 2014, dated 2019).

Test system: C. trachomatis serovar LGV-L2
Experiment: Inhibition of infectious Chlamydia progenies (C. trachomatis infectivity, reinfection of HeLa cells, IFU count)
Type: cell-based
Settings: infected HeLa cells, MOI 0.3, compound added 1 hpi, 44-48 h, relative to DMSO-treated control; for inhibition at 2.5 µM: 2.5 uM compound; for inhibition at 10 µM: 10 uM compound; for inhibition at 50 µM: 50 uM compound; for inhibition at 100 µM: 100 uM compound
Experimental: Cell Culture, C. trachomatis Infections, and Determination of C. trachomatis Infectivity.
HeLa cells were infected with C. trachomatis serovar LGV-L2 at an MOI of 0.3. At 1 hpi, RPMI media containing the different dilutions of the tested compounds in DMSO were added. The different compounds were dissolved to 20 mM in DMSO and were then diluted with RPMI media to be added at 2.5 to 100 μM. After 44-48 h incubation, the cells were osmotically lysed by the addition of cold sterile distilled water to release infectious EB progeny. 5×SPG was added to equalize the osmotic pressure to a 1×SPG isotonic condition. An equal amount of HBSS (Hanks balanced salt solution) (Gibco/Invitrogen) was added to the lysate (yielding a 1:1 dilution) and 10-fold serial dilutions of the resulting mixture was used to infect fresh HeLa cells. At 1 hpi, the inoculum was replaced with RPMI media and the infection allowed to progress for 44-48 hours before fixation and staining. Fixation was performed by adding methanol for 5 minutes and the cells were subsequently washed with phosphate buffered saline (PBS). The chlamydial inclusions were stained by a primary rabbit anti-Chlamydia antibody (generated in-house) and a secondary donkey anti-rabbit FITC-labelled antibody (Jackson ImmunoResearch). The DNA of the cells and Chlamydia was stained by the addition of DAPI. The stained cells were analyzed by an ArrayScan automated scanner (ArrayScan VTI HCS, Thermo Scientific). Data were presented as the relative numbers of IFUs in treated infections compared to the numbers of IFUs in DMSO-treated control infections.
The compounds of Examples 1-33 were tested for inhibition of infectious Chlamydia progenies at concentrations of 2.5 μM, 10 μM, 50 μM and 100 μM. In this document μM stands for micromolar. The compounds of the present disclosure were considered to have antibacterial activity if they provided 50% or more inhibition of infectious Chlamydia progenies using at least one of the tested concentrations in Table 1.

Compound | inhibition at 2.5 µM | inhibition at 10 µM | inhibition at 50 µM | inhibition at 100 µM
COc1c(Cc2cccc3ccccc23)cc(=O)n2c1SC[C@H]2C(=O)Nc1ccccc1 [Example 1, {(3R)-7-Methoxy-6-[(1-naphthyl)methyl]-4-oxo-1-thia-3a-aza-3-indanyl}anilinoformaldehyde] | 100% |  |  | 
COc1c(Cc2cccc3ccccc23)cc(=O)n2c1SC[C@H]2C(=O)Nc1ccc(C)cc1 [Example 2, {(3R)-7-Methoxy-6-[(1-naphthyl)methyl]-4-oxo-1-thia-3a-aza-3-indanyl}(p-toluidino)formaldehyde] | 96% | 100% |  | 
COc1c(Cc2cccc(C)c2C)cc(=O)n2c1SC[C@H]2C(=O)Nc1ccccc1 [Example 3, {(3R)-7-Methoxy-4-oxo-6-[(2,3-xylyl)methyl]-1-thia-3a-aza-3-indanyl}anilinoformaldehyde] | 95% | 100% |  | 
COc1c(Cc2cccc(C)c2C)cc(=O)n2c1SC[C@H]2C(=O)Nc1cc(C)cc(F)c1 [Example 4, {(3R)-7-Methoxy-4-oxo-6-[(2,3-xylyl)methyl]-1-thia-3a-aza-3-indanyl}(3-fluoro-5-toluidino)formaldehyde] | 99% | 100% |  | 
COc1c(Cc2cccc(C)c2C)cc(=O)n2c1SC[C@H]2C(=O)Nc1ccc(C)cc1 [Example 5, {(3R)-7-Methoxy-4-oxo-6-[(2,3-xylyl)methyl]-1-thia-3a-aza-3-indanyl}(p-toluidino)formaldehyde] | 100% | 100% |  | 
COc1c(Cc2cccc3ccccc23)c(N)c(=O)n2c1SC[C@H]2C(=O)Nc1ccccc1 [Example 6, {(3R)-5-Amino-7-methoxy-6-[(1-naphthyl)methyl]-4-oxo-1-thia-3a-aza-3-indanyl}anilinoformaldehyde] | 63% | 100% |  | 
COc1c(Cc2cccc(C)c2C)c(N)c(=O)n2c1SC[C@H]2C(=O)Nc1ccc(C)cc1 [Example 7, {(3R)-5-Amino-7-methoxy-4-oxo-6-[(2,3-xylyl)methyl]-1-thia-3a-aza-3-indanyl}(p-toluidino)formaldehyde] | 90% | 100% |  | 
COc1c(Cc2cccc(C)c2C)c(N)c(=O)n2c1SC[C@H]2C(=O)Nc1cc(C)cc(F)c1 [Example 8, {(3R)-5-Amino-7-methoxy-4-oxo-6-[(2,3-xylyl)methyl]-1-thia-3a-aza-3-indanyl}(3-fluoro-5-toluidino)formaldehyde] | 87% | 100% |  | 
COc1c(Cc2cccc3ccccc23)c(N)c(=O)n2c1SC[C@H]2C(=O)Nc1ccc(C)cc1 [Example 9, {(3R)-5-Amino-7-methoxy-6-[(1-naphthyl)methyl]-4-oxo-1-thia-3a-aza-3-indanyl}(p-toluidino)formaldehyde] | 89% | 100% |  | 
O=C(Nc1ccccc1)[C@@H]1CSc2c(O)c(Cc3cccc4ccccc34)cc(=O)n21 [Example 10, {(3R)-7-Hydroxy-6-[(1-naphthyl)methyl]-4-oxo-1-thia-3a-aza-3-indanyl}anilinoformaldehyde] | 88% | 98% |  | 
O=C(Nc1ccccc1)[C@@H]1CSc2c(Cl)c(Cc3cccc4ccccc34)cc(=O)n21 [Example 11, {(3R)-7-Chloro-6-[(1-naphthyl)methyl]-4-oxo-1-thia-3a-aza-3-indanyl}anilinoformaldehyde] | 97% | 100% |  | 
O=C(Nc1ccccc1)[C@@H]1CSc2c(C(F)(F)F)c(Cc3cccc4ccccc34)cc(=O)n21 [Example 12, {(3R)-6-[(1-Naphthyl)methyl]-4-oxo-7-(trifluoromethyl)-1-thia-3a-aza-3-indanyl}anilinoformaldehyde] | 98% | 100% |  | 
COc1c(Cc2cccc(C)c2C)c(N)c(=O)n2c1SC[C@H]2C(=O)Nc1ccccc1 [Example 13, {(3R)-5-Amino-7-methoxy-4-oxo-6-[(2,3-xylyl)methyl]-1-thia-3a-aza-3-indanyl}anilinoformaldehyde] | 75% | 100% |  | 
COc1c(Cc2cccc(C)c2C)c(N)c(=O)n2c1SC[C@H]2c1nc(-c2ccccc2)no1 [Example 14, (3R)-5-Amino-7-methoxy-3-(3-phenyl-1,2,4-oxadiazol-5-yl)-6-[(2,3-xylyl)methyl]-1-thia-3a-aza-4-indanone] | 76% | 100% |  | 
COc1c(Cc2cccc(C)c2C)cc(=O)n2c1SC[C@H]2c1nnc(-c2ccccc2)o1 [Example 15, (3R)-7-Methoxy-3-(5-phenyl-1,3,4-oxadiazol-2-yl)-6-[(2,3-xylyl)methyl]-1-thia-3a-aza-4-indanone] | 84% | 100% |  | 
COc1c(Cc2cccc(C)c2C)cc(=O)n2c1SC[C@H]2c1nc(-c2ccccc2)no1 [Example 16, (3R)-7-Methoxy-3-(3-phenyl-1,2,4-oxadiazol-5-yl)-6-[(2,3-xylyl)methyl]-1-thia-3a-aza-4-indanone] | 81% | 100% |  | 
COc1c(COc2cccc(C)c2C)cc(=O)n2c1SC[C@H]2C(=O)Nc1ccc(Cl)cn1 [Example 17, {(3R)-7-Methoxy-4-oxo-6-[(2,3-xylyloxy)methyl]-1-thia-3a-aza-3-indanyl}(5-chloro-2-pyridylamino)formaldehyde] | 79% | 100% |  | 
Cc1cccc(OCc2cc(=O)n3c(c2C2CC2)SCC3C(=O)Nc2ccccc2)c1C (centres unmarked) [Example 19, Anilino{7-cyclopropyl-4-oxo-6-[(2,3-xylylyloxy)methyl]-1-thia-3a-aza-3-indanyl}formaldehyde] | 100% |  |  | 
Cc1ccc(NC(=O)[C@@H]2CSc3c(C4CC4)c(Cc4cccc(C)c4C)cc(=O)n32)cc1 [Example 20, {(3R)-7-Cyclopropyl-4-oxo-6-[(2,3-xylyl)methyl]-1-thia-3a-aza-3-indanyl}(p-toluidino)formaldehyde] | 99% |  |  | 
Cc1ccc(NC(=O)[C@@H]2CSc3c(C4CC4)c(Cc4ccc(Cl)cc4)cc(=O)n32)cc1 [Example 21, {(3R)-6-[(p-Chlorophenyl)methyl]-7-cyclopropyl-4-oxo-1-thia-3a-aza-3-indanyl}(p-toluidino)formaldehyde] | 99% |  |  | 
O=c1cc(Cc2cccc3ccccc23)c(C2CC2)c2n1[C@H](c1nc(-c3ccccc3)n[nH]1)CS2 [Example 22, (3R)-7-Cyclopropyl-6-[(1-naphthyl)methyl]-3-(5-phenyl-2H-1,2,4-triazol-3-yl)-1-thia-3a-aza-4-indanone] | 98% | 100% |  | 
CC(C)Nc1c(Cc2cccc3ccccc23)cc(=O)n2c1SC[C@H]2C(=O)Nc1ccccc1 [Example 23, Anilino{7-(isopropylamino)-6-[(1-naphthyl)methyl]-4-oxo-1-thia-3a-aza-3-indanyl}formaldehyde] |  | 98% | 98% | 
CN(C)c1c(Cc2cccc3ccccc23)cc(=O)n2c1SC[C@H]2C(=O)Nc1ccccc1 [Example 24, {(3R)-7-(Dimethylamino)-6-[(1-naphthyl)methyl]-4-oxo-1-thia-3a-aza-3-indanyl}anilinoformaldehyde] |  | 98% | 99% | 
CS(=O)(=O)Nc1c(Cc2cccc3ccccc23)cc(=O)n2c1SC[C@H]2C(=O)Nc1ccccc1 [Example 25, Anilino{7-(methylsulfonylamino)-6-[(1-naphthyl)methyl]-4-oxo-1-thia-3a-aza-3-indanyl}formaldehyde] |  | 97% | 97% | 
CC(=O)Nc1c(Cc2cccc3ccccc23)cc(=O)n2c1SC[C@H]2C(=O)Nc1ccccc1 [Example 26, 1-{3-Anilinocarbonyl-6-[(1-naphthyl)methyl]-4-oxo-1-thia-3a-aza-7-indanylamino}-1-ethanone] |  | 54% | 87% | 
COC(=O)Nc1c(Cc2cccc3ccccc23)cc(=O)n2c1SC[C@H]2C(=O)Nc1ccccc1 [Example 27, {(3R)-7-(Methoxycarbonylamino)-6-[(1-naphthyl)methyl]-4-oxo-1-thia-3a-aza-3-indanyl}anilinoformaldehyde] |  | 96% | 98% | 
O=C(O)[C@@H]1CSc2c(OCC3CC3)c(Cc3cccc4ccccc34)cc(=O)n21 [Example 28, (3R)-7-(Cyclopropylmethoxy)-6-[(1-naphthyl)methyl]-4-oxo-1-thia-3a-aza-3-indancarboxylic acid] |  |  |  | 56%
O=C(O)[C@@H]1CSc2c(C(F)(F)F)c(Cc3cccc4ccccc34)cc(=O)n21 [Example 29, (3R)-6-[(1-Naphthyl)methyl]-4-oxo-7-(trifluoromethyl)-1-thia-3a-aza-3-indancarboxylic acid] |  |  |  | 56%
